Laboratory results published in patent US20010053776A1, “Tricyclic pyridin-2-one analogue as a GABA receptor ligand” (priority 2000, published 2001).

Structure (SMILES): Cc1csc(-c2cc(-c3ccncc3)c3n(c2=O)CCCc2ccncc2-3)n1 [Example 1, 9-(4-Methylthiazol-2-yl)-11-(pyridin-4-yl)-6,7-dihydro-5H-2,7a-diazadibenzo[a,c]cyclohepten-8-one]
- melting point: 300 to 302 °C
